Assay results from patent publication US20170129932A1, “METHOD FOR PREPARING RECOMBINANT GLYCOPROTEIN HAVING HIGH SIALIC ACID CONTENT, THROUGH GLYCOSPHINGOLIPID SYNTHESIS CYCLE CONTROL” (KOREA ADVANCED INSTITUTE OF SCIENCE AND TECHNOLOGY, priority 2014, published 2017).

How the values were obtained:
EC2-1H9 cell line [1] = conditions: WGA lectin blotting, EC2-1H9 cells, 1 μM EtDO-P4, FIGS. 1B and 1C
Experimental: Particularly, in order to treat EtDO-P4, the cells (5×10^6) were cultured in 100-mm plates containing MEM-α supplemented with 10% dFBS for 24 hours. The cells were washed twice with serum-free MEM-α. Then, the cells were added with 1 μM EtDO-P4/MEM-α, followed by further culture for 48 hours.

EC2-1H9 cell line [2] = assay: Glycosphingolipid (GSL) extraction and TLC in EC2-1H9 cells; type: cell-based, Chinese hamster; conditions: 1 μM EtDO-P4, 48 hours, FIG. 1A
Experimental: Glycosphingolipid (GSL) was sonicated for 30 minutes, followed by extraction using chloroform/methanol (C/M; 2:1, v/v) and isopropanol/hexane/water (IPA/H/W; 55:25:20 v/v/v). The GSL extract was dissolved in 0.1 M NaOH/MeOH, followed by culture for 2 hours at 40 °C. The extract was neutralized with 1 N HCl, to which hexane was added. The mixture stood for 5 minutes. The lower layer was evaporated in the N2 atmosphere, and the remaining part was dissolved in distilled water. The mixture was applied to […] (Varian, Palo Alto, Calif.). After washed with distilled water, total GSL was extracted with C/M, followed by evaporation. The residue dissolved in C/M was spotted on TLC plate (Silica Gel 60 F-254, Merck), followed by development in C/M/0.2% CaCl2 (55:40:10, v/v/v). The plate was then stained with 2% orcinol in 2 M H2SO4 by spraying.

CCCCCCCCCCCCCCCC(=O)N[C@H](CN1CCCC1)[C@H](O)c1ccc2c(c1)OCCO2 [EtDO-P4, D-threo-1-(3′,4′-ethylenedioxy)-phenyl-2-palmitoylamino-3-pyrrolidino-1-propanol]
increase of sialic acid content of purified rhEpo (EC2-1H9 cell line [1]): up to 22% | major GSLs, GM1, GM2, and GM3 (EC2-1H9 cell line [2]): reduced completely
